# Measurements: US4345938A, “Herbicidal 2-haloacetanilides” (Monsanto Company, priority 1980, dated 1982)
# Like-named read-outs stand apart in the source and are kept apart here.
# Tests used:
# Rice [1] = experiment: Field transplant rice test, applied 9 DAT, rice injury; type: in vivo; conditions: Oryza sativa, 216 h, read-out: Percent Inhibition, Rice; for inhibition at 375 g/ha: 0.375 Kg/Ha; for inhibition at 750 g/ha: 0.75 Kg/Ha; for inhibition at 1500 g/ha: 1.5 Kg/Ha; for inhibition at 3000 g/ha: 3.0 Kg/Ha
# Protocol: (§1) In further comparative tests, a preferred compound of this invention (Example 1) was tested in the field with prior art Compounds A-D. These tests were conducted under conditions reflecting herbicide application times generally favorable to all herbicides in the test. The timing of application of herbicides to transplant rice is very important, whether, as in some instances, prior to transplanting the rice; in other instances, at the time of transplanting or else after transplanting. Application times are conventionally referred to as "days before transplant" (DBT) or "days after transplant" ("DAT"). The field test data in Table IV was obtained from a test in which the herbicides were applied at the time of transplant, i.e., "0 DAT", with observations being made weekly up to six weeks after transplant ("WAT") beginning at two weeks after transplant; for illustrative and representative purposes, only the early, middle and late period observations, i.e., 2 WAT, 4 WAT and 6 WAT, are shown in Table IV. The data in Table IV is for rates of application common to all herbicides in the test, i.e., from 3.0 kg/ha (2.67 lb/A) down to 0.375 kg/ha (0.34 lb/A). All herbicides were applied at their actual or expected use rates, i.e., as granules containing 2.5% by weight herbicide for the compound of Example 1, Compounds B, C and D and 5.0% by weight for Compound A.
# (§2) In Table V are presented field data showing the relative performance of the compound of Example 1 and Compounds A-D applied 9 DAT, with observations being made weekly from 3 WAT to 7 WAT; again, for illustrative and representative purposes, only the early, middle and late period observations are reported in Table V, the herbicide rates and concentrations of active ingredients the same as is shown in Table IV.
# Echinochloa crus-galli = experiment: Field transplant rice test, applied 9 DAT, EC; type: in vivo; conditions: for inhibition at 375 g/ha / inhibition at 750 g/ha / inhibition at 1500 g/ha / inhibition at 3000 g/ha: Echinochloa crus-galli, 216 h, read-out: Percent Inhibition, EC; for inhibition at 375 g/ha: 0.375 Kg/Ha; for inhibition at 750 g/ha: 0.75 Kg/Ha; for inhibition at 1500 g/ha: 1.5 Kg/Ha; for inhibition at 3000 g/ha: 3.0 Kg/Ha
# Source text: (§3) In the discussion of data below, occasional reference is made to herbicide application rates symbolized as "GR15 " and "GR85 "; these rates are given in kilograms per hectare (kg/ha) which are convertible into pounds per acre (lbs/A) by dividing the kg/ha rate by 1.12.
# (§4) A further guide to the effectiveness of a chemical as a selective herbicide is the "selectivity factor" ("SF") for a herbicide in given crops and weeds. The selectivity factor is a measure of the relative degree of crop safety and weed injury and is expressed in terms of the GR15 /GR85 ratio, i.e., the GR15 rate for the crop divided by the GR85 rate for the weed, both rates in kg/ha (lb/A.)
# (§5) The test data in Table III for all compounds was obtained under identical test conditions. The weeds used in the tests herein have the following abbreviations in the tables: Echinochloa crus-galli (EC), Monochloria vaginalis (MV), Cyperus Serotinus (CS), Eleocharis Kuroguwai (EK) and Sagittaria trifolia (ST).
# as §1, §2
# Cyperus serotinus = experiment: Field transplant rice test, applied 9 DAT, CS; type: in vivo; conditions: for inhibition at 375 g/ha / inhibition at 750 g/ha / inhibition at 1500 g/ha / inhibition at 3000 g/ha: Cyperus serotinus, 216 h, read-out: Percent Inhibition, CS; for inhibition at 375 g/ha: 0.375 Kg/Ha; for inhibition at 750 g/ha: 0.75 Kg/Ha; for inhibition at 1500 g/ha: 1.5 Kg/Ha; for inhibition at 3000 g/ha: 3.0 Kg/Ha
# Source text: as §3, §4, §5, §1, §2
# Eleocharis kuroguwai [2] = experiment: Field transplant rice test, applied 0 DAT, EK; type: in vivo; conditions: 0 h, read-out: Percent Inhibition, EK; for inhibition at 375 g/ha: 0.375 Kg/Ha; for inhibition at 750 g/ha: 0.75 Kg/Ha; for inhibition at 1500 g/ha: 1.5 Kg/Ha; for inhibition at 3000 g/ha: 3.0 Kg/Ha
# Protocol: as §5, §1
# Monochoria vaginalis = experiment: Field transplant rice test, applied 9 DAT, MV; type: in vivo; conditions: for inhibition at 375 g/ha / inhibition at 750 g/ha / inhibition at 1500 g/ha / inhibition at 3000 g/ha: Pontederia vaginalis, 216 h, read-out: Percent Inhibition, MV; for inhibition at 375 g/ha: 0.375 Kg/Ha; for inhibition at 750 g/ha: 0.75 Kg/Ha; for inhibition at 1500 g/ha: 1.5 Kg/Ha; for inhibition at 3000 g/ha: 3.0 Kg/Ha
# Source text: as §3, §4, §5, §1, §2
# Eleocharis kuroguwai [3] = experiment: Greenhouse transplant rice test, EK; type: in vivo; conditions: about 3 WAT, read-out: Percent Inhibition, EK
# Source text: (§6) The test procedure used in this greenhouse test is as follows: Ray silt loam top soil containing about 0.05% by weight of krillium and sifted through a […] screen is fumigated about 5-10 days prior to use. Pots are then filled with said Ray silt loam soil to a level to allow for a 1 in. (2.54 cm) flooding depth. Rice plants (Bluebelle) of 2 to 3 weeks age are transplanted to the pots and bulbs or seeds of the test weeds also planted in the pots. The pots are then flooded and the test chemical applied to the surface of the flood water. The flood water is reduced to allow for germination of the Echinochloa crus-galli (barnyardgrass) seed and subsequently reflooded and maintained in that condition. Observations of percent inhibition using a scale of 0-100% are made about 3 weeks after transplant (WAT).
# as §5
# Rice [4] = experiment: Greenhouse transplant rice test, rice injury; type: in vivo, Rice (Bluebelle); conditions: Oryza sativa, about 3 WAT, read-out: Percent Inhibition, Rice
# Source text: as §6, §5
structure (smiles),measurement,setting,value
"CCCOCCN(C(=O)CCl)c1c(CC)cccc1CC [Compound D, 2',6'-diethyl-N-(n-propoxyethyl)-2-chloroacetanilide]",inhibition at 375 g/ha,Rice [1]; 3 WAT,8%
same,inhibition at 375 g/ha,Rice [1]; 5 WAT,7%
same,inhibition at 375 g/ha,Rice [1]; 7 WAT,7%
same,inhibition at 750 g/ha,Rice [1]; 3 WAT,10%
same,inhibition at 750 g/ha,Rice [1]; 5 WAT,5%
same,inhibition at 750 g/ha,Rice [1]; 7 WAT,2%
same,inhibition at 1500 g/ha,Rice [1]; 3 WAT,10%
same,inhibition at 1500 g/ha,Rice [1]; 5 WAT,5%
same,inhibition at 1500 g/ha,Rice [1]; 7 WAT,7%
same,inhibition at 3000 g/ha,Rice [1]; 3 WAT,15%
same,inhibition at 3000 g/ha,Rice [1]; 5 WAT,5%
same,inhibition at 3000 g/ha,Rice [1]; 7 WAT,8%
same,inhibition at 375 g/ha,Echinochloa crus-galli; 3 WAT,62%
same,inhibition at 375 g/ha,Echinochloa crus-galli; 5 WAT,48%
same,inhibition at 375 g/ha,Echinochloa crus-galli; 7 WAT,57%
same,inhibition at 750 g/ha,Echinochloa crus-galli; 3 WAT,88%
same,inhibition at 750 g/ha,Echinochloa crus-galli; 5 WAT,92%
same,inhibition at 750 g/ha,Echinochloa crus-galli; 7 WAT,88%
same,inhibition at 1500 g/ha,Echinochloa crus-galli; 3 WAT,78%
same,inhibition at 1500 g/ha,Echinochloa crus-galli; 5 WAT,75%
same,inhibition at 1500 g/ha,Echinochloa crus-galli; 7 WAT,78%
same,inhibition at 3000 g/ha,Echinochloa crus-galli; 3 WAT,100%
same,inhibition at 3000 g/ha,Echinochloa crus-galli; 5 WAT,100%
same,inhibition at 3000 g/ha,Echinochloa crus-galli; 7 WAT,100%
same,"selectivity factor (GR15/GR85), EC in transplant rice",Echinochloa crus-galli; between 3 WAT and 7 WAT,1
same,inhibition at 375 g/ha,Cyperus serotinus; 3 WAT,92%
same,inhibition at 375 g/ha,Cyperus serotinus; 5 WAT,87%
same,inhibition at 375 g/ha,Cyperus serotinus; 7 WAT,67%
same,inhibition at 750 g/ha,Cyperus serotinus; 3 WAT,77%
same,inhibition at 750 g/ha,Cyperus serotinus; 5 WAT,67%
same,inhibition at 750 g/ha,Cyperus serotinus; 7 WAT,33%
same,inhibition at 1500 g/ha,Cyperus serotinus; 3 WAT,77%
same,inhibition at 1500 g/ha,Cyperus serotinus; 5 WAT,77%
same,inhibition at 1500 g/ha,Cyperus serotinus; 7 WAT,100%
same,inhibition at 3000 g/ha,Cyperus serotinus; 3 WAT,90%
same,inhibition at 3000 g/ha,Cyperus serotinus; 5 WAT,100%
same,inhibition at 3000 g/ha,Cyperus serotinus; 7 WAT,100%
same,"selectivity factor (GR15/GR85), CS in transplant rice",Cyperus serotinus; between 3 WAT and 7 WAT,1
same,inhibition at 375 g/ha,Eleocharis kuroguwai [2]; 2 WAT,62%
same,inhibition at 375 g/ha,Eleocharis kuroguwai [2]; 4 WAT,20%
same,inhibition at 375 g/ha,Eleocharis kuroguwai [2]; 6 WAT,0%
same,inhibition at 750 g/ha,Eleocharis kuroguwai [2]; 2 WAT,63%
same,inhibition at 750 g/ha,Eleocharis kuroguwai [2]; 4 WAT,40%
same,inhibition at 750 g/ha,Eleocharis kuroguwai [2]; 6 WAT,10%
same,inhibition at 1500 g/ha,Eleocharis kuroguwai [2]; 2 WAT,70%
same,inhibition at 1500 g/ha,Eleocharis kuroguwai [2]; 4 WAT,67%
same,inhibition at 1500 g/ha,Eleocharis kuroguwai [2]; 6 WAT,47%
same,inhibition at 3000 g/ha,Eleocharis kuroguwai [2]; 2 WAT,85%
same,inhibition at 3000 g/ha,Eleocharis kuroguwai [2]; 4 WAT,75%
same,inhibition at 3000 g/ha,Eleocharis kuroguwai [2]; 6 WAT,22%
same,inhibition at 375 g/ha,Monochoria vaginalis; 3 WAT,95%
same,inhibition at 375 g/ha,Monochoria vaginalis; 5 WAT,98%
same,inhibition at 375 g/ha,Monochoria vaginalis; 7 WAT,95%
same,inhibition at 750 g/ha,Monochoria vaginalis; 3 WAT,100%
same,inhibition at 750 g/ha,Monochoria vaginalis; 5 WAT,87%
same,inhibition at 750 g/ha,Monochoria vaginalis; 7 WAT,100%
same,inhibition at 1500 g/ha,Monochoria vaginalis; 3 WAT,100%
same,inhibition at 1500 g/ha,Monochoria vaginalis; 5 WAT,100%
same,inhibition at 1500 g/ha,Monochoria vaginalis; 7 WAT,100%
same,inhibition at 3000 g/ha,Monochoria vaginalis; 3 WAT,100%
same,inhibition at 3000 g/ha,Monochoria vaginalis; 5 WAT,100%
same,inhibition at 3000 g/ha,Monochoria vaginalis; 7 WAT,100%
same,"selectivity factor (GR15/GR85), MV in transplant rice",Monochoria vaginalis; between 3 WAT and 7 WAT,8
"CCCCOc1cccc(CC)c1N(CC)C(=O)CCl [Example 2, N-ethyl-2'-n-butoxy-6'-ethyl-2-chloroacetanilide]",inhibition at 280 g/ha,Eleocharis kuroguwai [3]; 0.28 Kg/Ha,100%
same,inhibition at 560 g/ha,Eleocharis kuroguwai [3]; 0.56 Kg/Ha,100%
same,inhibition at 1120 g/ha,Eleocharis kuroguwai [3]; 1.12 Kg/Ha,100%
same,inhibition at 2240 g/ha,Eleocharis kuroguwai [3]; 2.24 Kg/Ha,100%
same,inhibition at 280 g/ha,Rice [4]; 0.28 Kg/Ha,0%
same,inhibition at 560 g/ha,Rice [4]; 0.56 Kg/Ha,10%
same,inhibition at 1120 g/ha,Rice [4]; 1.12 Kg/Ha,15%
same,inhibition at 2240 g/ha,Rice [4]; 2.24 Kg/Ha,25%
